In US10591445B2, “Methods for analysis and resolution of preparations of dianhydrogalactitol and derivatives or analogs thereof” (Del Mar Pharmaceuticals (BC) Ltd., priority 2015, dated 2020):

Key:
[1] = Solution stability of DAG sample solution (HPLC-ELSD); format: physicochemical; settings: 8 mg/mL in acetonitrile/water (85:15)
Experimental: The test sample solutions (nominal 8 mg/mL) are prepared as follows. The sample preparation for DAG drug substance or API can be as follows. Accurately weigh, in duplicate, about 80 mg of DAG API sample into clean 10 mL volumetric flasks. Dissolve DAG API sample in approximately 5 mL of diluent, diluted to volume with diluent, and mix. The sample preparation for DAG drug product (lyophilized powder, 40 mg/vial) can be as follows: Clean and remove the closure of the vial. Reconstitute the lyophilized vial with 5.0 mL diluent to yield an 8 mg/mL solution. Prepare samples in duplicate (using 2 vials). The sample solutions can be stored up to 48 hrs at 2-8° C. and 52 hrs at ambient laboratory conditions.
With respect to solution stability, the recovery of the aged solutions should be within 85%-115% of the initial assay. […]
The experimental approach for determining solution stability was as follows: For a standard solution, a dulcitol standard solution was prepared at 1.0% of DAG nominal conc. in one replicate and placed the solution under ambient laboratory conditions and refrigerated conditions (2-8° C.), respectively, using 1% Linearity standard solutions). […] For time points of less than 24 hours, solution stability is evaluated against fresh standards. The recovery of the aged solutions is evaluated. […] For time points of less than 24 hours, solution stability is evaluated against fresh standards.

[2] = Solution stability of dulcitol standard solution (HPLC-ELSD); format: physicochemical; settings: for Assay / Concentration: standard solution
Experimental: The standard solutions can be stored up to 48 hrs at 2-8° C. and can be stored up to 52 hrs at ambient laboratory condition. The standard solutions can be used to generate a standard curve as described further below.
With respect to solution stability, the recovery of the aged solutions should be within 85%-115% of the initial assay. The absolute difference should be no more than 0.2% for an impurity at ≤1.0%. For an impurity >1.0%, the result of the aged solution should be within 80%-120% of the original. No new impurities at ≥1.0% should be observed.
The experimental approach for determining solution stability was as follows: For a standard solution, a dulcitol standard solution was prepared at 1.0% of DAG nominal conc. in one replicate and placed the solution under ambient laboratory conditions and refrigerated conditions (2-8° C.), respectively, using 1% Linearity standard solutions). The solution was reanalyzed at different time intervals, such as 2 hours, 4 hours, 8 hours, 24 hours and 48 hours. For time points of less than 24 hours, solution stability is evaluated against fresh standards. The recovery of the aged solutions is evaluated. For sample solutions, a sample solution at a specified DAG nominal concentration was prepared in one replicate and placed under laboratory conditions at ambient temperature or under refrigerated conditions (2-8° C.). The solution was reanalyzed at different time intervals, such as 2 hours, 4 hours, 8 hours, 24 hours and 48 hours. For time points of less than 24 hours, solution stability is evaluated against fresh standards.

[3] = ambient laboratory conditions, 0 h
[4] = ambient laboratory conditions, 2 h
[5] = ambient laboratory conditions, 4 h
[6] = ambient laboratory conditions, 8 h
[7] = ambient laboratory conditions, 25 h
[8] = ambient laboratory conditions, 48 h

Question: What does the source list for `OC(C1CO1)C(O)C1CO1` (stereo not shown) [DAG, 1,2:5,6 dianhydrogalactitol]?
Answer: Time the sample solutions can be stored ([1]; 2-8° C.): up to 48 hrs; Time the sample solutions can be stored ([1]; ambient laboratory conditions): ≤ 52 h

Question: What does the source list for `OC[C@@H](O)[C@H](O)[C@H](O)[C@@H](O)CO` [Dulcitol, dulcitol]?
Answer: Time the standard solutions can be stored ([2]; 2-8° C.): up to 48 hrs; Time the standard solutions can be stored ([2]; ambient laboratory condition): up to 52 hrs; Assay ([2]; 2-8° C., 0 h): 109.233%; Concentration ([2]; 2-8° C., 0 h): 89.5 µg/mL; Assay ([2]; 2-8° C., 2 h): 109.076%; Concentration ([2]; 2-8° C., 2 h): 89.4 µg/mL; Assay ([2]; 2-8° C., 4 h): 109.164%; Concentration ([2]; 2-8° C., 4 h): 89.5 µg/mL; Assay ([2]; 2-8° C., 8 h): 108.302%; Concentration ([2]; 2-8° C., 8 h): 88.8 µg/mL; Assay ([2]; 2-8° C., 25 h): 109.056%; Concentration ([2]; 2-8° C., 25 h): 89.4 µg/mL; Assay ([2]; 2-8° C., 48 h): 108.947%; Concentration ([2]; 2-8° C., 48 h): 89.3 µg/mL; Assay [2, 3]: 109.944%; Concentration [2, 3]: 89.8 µg/mL; Assay [2, 4]: 109.778%; Concentration [2, 4]: 89.7 µg/mL; Assay [2, 5]: 109.059%; Concentration [2, 5]: 89.1 µg/mL; Assay [2, 6]: 108.590%; Concentration [2, 6]: 88.7 µg/mL; Assay [2, 7]: 110.553%; Concentration [2, 7]: 90.3 µg/mL; Assay [2, 8]: 108.986%; Concentration [2, 8]: 89.1 µg/mL
